Laboratory results from PMC5500233 (Peptides, 2016).
Values joined by “and” are separate entries in the source; they are usually repeats but may differ in a detail not shown here. Equal values may be shown once. “Also recorded” adds a separate entry of the source. One block for each compound: values may come before it.

Experiments:
[1] = test system: Ang-(1–7) peptidase, partially purified fraction from brain medulla; conditions: ref [15], cited from earlier work
DPP 3 = conditions: ref [2],[15]; cited from earlier work
HK-2 peptidase = conditions: ref [25]; cited from earlier work
[2] = test system: purified Ang-(1–7) peptidase from HK-2 cells; assay: JMV-390 inhibition of ^125I-Ang-; format: biochemical, human; conditions: JMV-390, Fig. 3: 0.5 and 10 nM
human DPP 3 [3] = target: T1, human DPP 3 (Homo sapiens, UniProt Q9NY33); assay: JMV-390 inhibition of ^125I-Ang-; format: biochemical; conditions: JMV-390, Fig. 3: 0.5 and 10 nM
T1 sequence (Q9NY33 1-737): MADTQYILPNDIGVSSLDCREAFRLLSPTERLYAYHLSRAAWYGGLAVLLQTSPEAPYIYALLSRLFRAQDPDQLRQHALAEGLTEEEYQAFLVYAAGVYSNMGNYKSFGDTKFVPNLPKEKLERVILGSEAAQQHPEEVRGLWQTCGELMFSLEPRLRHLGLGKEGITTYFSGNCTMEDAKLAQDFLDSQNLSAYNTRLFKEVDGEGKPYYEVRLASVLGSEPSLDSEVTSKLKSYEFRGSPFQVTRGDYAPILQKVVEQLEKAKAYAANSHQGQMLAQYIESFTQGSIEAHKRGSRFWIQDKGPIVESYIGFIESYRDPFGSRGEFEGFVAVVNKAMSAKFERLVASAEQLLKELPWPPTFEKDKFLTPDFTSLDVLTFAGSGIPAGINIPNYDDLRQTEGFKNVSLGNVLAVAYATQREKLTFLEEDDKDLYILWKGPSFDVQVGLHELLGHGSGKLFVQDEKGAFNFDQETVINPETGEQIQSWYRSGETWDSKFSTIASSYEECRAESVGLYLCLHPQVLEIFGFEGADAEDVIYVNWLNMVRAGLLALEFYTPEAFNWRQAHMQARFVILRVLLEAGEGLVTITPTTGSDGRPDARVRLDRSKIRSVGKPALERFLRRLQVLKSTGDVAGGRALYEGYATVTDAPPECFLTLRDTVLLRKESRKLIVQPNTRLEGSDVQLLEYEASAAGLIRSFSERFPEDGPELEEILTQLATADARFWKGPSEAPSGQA

human DPP 3 [4] = target: T1, human DPP 3; assay: Metabolism of unlabeled Ang-; format: biochemical; conditions: 100 μM Ang-(1–7), 37 °C, HPLC-UV
[5] = test system: DPP 3 activity in HK-2 cells; assay: ^125I-Ang-; format: cell-based, human; conditions: for peptidase activity: mean±SEM, control 136±6
HK-2 cells = assay: Intracellular Ang-; format: cell-based, human
[6] = target: Ang-(1–7) peptidase, partially purified fraction from brain medulla; conditions: JMV-390; brain medulla Ang-(1–7) peptidase; ref [15]; cited from earlier work
[7] = target: Ang-(1–7) peptidase in renal tubules; conditions: JMV-390, ref [15],[25]; cited from earlier work
[8] = test system: TOP expressed in the HK-2 cells; conditions: high dose of JMV-390; ref [25]; cited from earlier work
human DPP 3 [9] = target: T1, human DPP 3; assay: Kinetic studies of Ang-; format: biochemical; conditions: 37 °C, n=3
Ang-(1–7) RIA = conditions: as previously described; ref [27]; cited from earlier work

Compound: bradykinin (RPPGFSPFR; Bradykinin; UniProt P01042 381-389, looked up)
metabolism by enriched peptidase [1]: failed to metabolize

Compound: APMA
sensitivity of DPP 3 to thiol inhibitors and chelating agents (DPP 3): unusual sensitivity

Compound: neurotensin
metabolism by enriched peptidase [1]: failed to metabolize

Compound: apelin 13
metabolism by enriched peptidase [1]: failed to metabolize

Compound: c1cnc2c(c1)ccc1cccnc12 [ophenanthroline]
sensitivity of DPP 3 to thiol inhibitors and chelating agents (DPP 3): unusual sensitivity

Compound: [Abz-Asp^1, Tyr (NO2)^7]-Ang-(1–7)]
hydrolysis by HK-2 peptidase (HK-2 peptidase): resistant

metabolism of unlabeled Ang-(1–7) to Ang-(5–7) in presence of inhibitor (human DPP 3 [4]; JMV-390 1 μM, 100 ng DPP 3, 60 min): attenuated the metabolism of Ang-(1–7)
Compound: CC[C@H](C)[C@H](NC(=O)[C@@H](CC(=O)NO)Cc1ccccc1)C(=O)N[C@@H](CC(C)C)C(=O)O [JMV-390]
effect on Ang-(1–7) hydrolysis by purified Ang-(1–7) peptidase [2]: abolished; also recorded: attenuated the metabolism
effect on Ang-(1–7) hydrolysis by DPP 3 (human DPP 3 [3]): abolished; also recorded: attenuated the metabolism
peptidase activity ([5]; 20 nM JMV-390, 72 h, n = 2): 76 ± 13 fmol/min/mg
peptidase activity ([5]; 200 nM JMV-390, 72 h, n = 3, p<0.05): 17 ± 3 fmol/min/mg
reduction of peptidase (DPP 3) activity ([5]; 200 nM JMV-390, 72 h, vs control, n = 3, p<0.05): 85% and > 80%
effect on metabolism of ^125I-Ang-(1–7) to ^125I-Ang-(3-4) ([5]; 20 or 200 nM JMV-390, 72 h, 100,000 × g cytosolic fraction): significantly reduced the metabolism
effect on intracellular content of Ang-(1–7) (HK-2 cells; 20 nM JMV-390, 72 h): tended to augment the cellular levels of Ang-(1–7); also recorded: increased the intracellular content of Ang-(1–7)
increase in Ang-(1–7) content (HK-2 cells; 20 nM JMV-390, 72 h, vs basal, n = 3, not statistically significant): 68%
effect on intracellular content of Ang-(1–7) (HK-2 cells; 200 nM JMV-390, 72 h): significantly decreased the content of Ang-(1–7)
Ang-(1–7) content (HK-2 cells; 200 nM JMV-390, 72 h, RIA, mean±SEM, n = 3, p<0.05 vs 20 nM JMV-390, basal 22 ±2): 15 ±3 fmols/mg protein
increase in cellular levels of Ang-(1–7) (HK-2 cells; lower dose (20 nM) of JMV-390, not statistically significant): approximately 2 fold
IC50 [6]: < 1 nM
IC50 [7]: ~1 nM
direct conversion of ^125I-Ang I to ^125I-Ang-(1–7) by TOP [8]: inhibited the direct conversion

Compound: Angiotensin-(1–7) [Ang-(1–7)]
kcat (human DPP 3 [9]): 7.3 s⁻¹
product of unlabeled Ang-(1–7) hydrolysis (human DPP 3 [4]; 100 ng human DPP 3, 60 min): a major peak corresponding to the metabolite Ang-(5–7)
hydrolysis rate, fold higher than Ang II ([1]; enriched brain medulla peptidase): 12 fold

Compound: Ang II: angiotensin peptide (DRVYIHPF; Angiotensin-2; UniProt P01019 25-32, looked up)
recognition by Ang-(1–7) RIA (cross-reactivity) (Ang-(1–7) RIA): < 0.01%

Compound: O=C(O)c1cc[c]([Hg][Cl])cc1 [PCMB]
sensitivity of DPP 3 to thiol inhibitors and chelating agents (DPP 3): unusual sensitivity

Compound: O=C(O)CN(CCN(CC(=O)O)CC(=O)O)CC(=O)O [EDTA]
sensitivity of DPP 3 to thiol inhibitors and chelating agents (DPP 3): unusual sensitivity

Compound: Ang-(2–7): angiotensin peptide recognized by the Ang-(1–7) RIA (RVYIHP; UniProt P01019 26-31, looked up, fragment)
recognition by Ang-(1–7) RIA (Ang-(1–7) RIA): recognizes
